Where two headings read alike, the source gives them in different places.
Legend:
pLai RLuc reporter virus = experiment: microbe, parasite or virus in culture; format: cell-based, HIV; settings: Human immunodeficiency virus 1, 72 h
Experimental: To quantify the amount of protein binding to human serum, compounds were serially diluted (1:3) in DMSO and acoustically transferred onto 384-well assay plates via a Labcyte ECHO robot. Each plate contained up to 8 test compounds, including negative and positive controls, (DMSO, 5 μM AZT respectively). Assay plates were prepared in duplicate, and tested in either CCM (cell culture media) or HS/CCM (human serum/cell culture media). MT-4 cells were first pre-infected with pLai RLuc reporter virus for 2 h at 37° C., then further diluted in either CCM (RPMI media, 10% FBS, 1% P/S) or HS/CCM (RPMI media, 10% FBS, 50% HS, 1% P/S), and subsequently added to each plate using a Biotek Micro Flow dispenser. After a 72-h incubation in a humidified and temperature controlled incubator (37° C.), Renilla Glo (Promega) was added to all assay plates and chemiluminescence read using an Envision plate-reader. […] To determine the amount of protein binding, EC50 fold shifts (or EC50 shifts) were calculated by dividing EC50 (HS/CCM)/EC50 (CCM).

[1] = Cytotoxicity assay in MT-4 cells; format: cell-based, human; settings: human, uninfected MT-4 cells, 5 days incubation; read-out: CC50
In short: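 Infected MT-4 cells (HIV-1 IIIB, fresh 1:250 dilution of concentrated stock) or mock-infected cells exposed to compounds for 5 days at 37 °C. Viability by CellTiter-Glo luminescence; 5 μM AZT positive control, no-drug negative control. Uninfected cells used for cytotoxicity, with 10 μM puromycin as base-level cytotoxicity control.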

HIV-1 (IIIB) = experiment: Antiviral assay in MT-4 cells (HIV MT-4 antiviral assay); format: cell-based; settings: HIV-1 (IIIB) in MT-4 cells, 5 days incubation, read-out: EC50
In short: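 MT-4 cells infected with HIV-1 IIIB (1:250 diluted stock) and exposed to 1:3 serially diluted compound in RPMI with 10% FBS. Viability read by CellTiter-Glo luminescence after 5 days at 37° C; mock-infected cells and 5 μM AZT as controls.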

[2] = read-out: Antiviral Serum Shift RLuc 50% HS, HS/CCM (RPMI media, 10% FBS, 50% HS, 1% P/S), 72-h incubation
[3] = read-out: Antiviral Serum Shift RLuc CCM, CCM (RPMI media, 10% FBS, 1% P/S), 72-h incubation
[4] = Human immunodeficiency virus 1, IIIB, MT4, 120 h

| SMILES | EC50 (pLai RLuc reporter virus; [2]) [nM] | EC50 (pLai RLuc reporter virus; [3]) [nM] | CC50 at 5 days [1] [nM] | EC50 (HIV-1 (IIIB); [4]) [nM] | EC50 (HIV-1 (IIIB)) [nM] |
| --- | --- | --- | --- | --- | --- |
| O=C(NCc1c(F)cc(F)cc1F)c1cn2c(c(O)c1=O)C(=O)N1C[C@@H]2CCCc2ccccc21 [Example 80-1, (6S)-1-hydroxy-2,15-dioxo-N-(2,4,6-trifluorobenzyl)-2,6,7,8,9,15-hexahydro-6,14-methanobenzo[e]pyrido[1,2-a][1,4]diazecine-3-carboxamide] | 0.651 | 0.348 | 10400 | 2.24 |  |
| C[C@@H]1C[C@H]2CN(C(=O)c3c(O)c(=O)c(C(=O)NCc4c(F)cc(F)cc4F)cn32)[C@@H](C)C1 [Example 142-1, (3S,5S,7S)-12-hydroxy-3,5-dimethyl-1,11-dioxo-N-(2,4,6-trifluorobenzyl)-1,4,5,6,7,11-hexahydro-3H-2,7-methanopyrido[1,2-a][1,4]diazonine-10-carboxamide] | 1.18 | 0.354 | 8420 | 1.97 |  |
| O=C(NCc1c(F)cc(F)cc1F)c1cn2c(c(O)c1=O)C(=O)N1C[C@H](O)CC[C@H]2C1 (single isomer, unassigned) [Example 79-2] | 6.61 | 5.33 | > 50000 | 17.7 |  |
| C[C@]1(F)CCCN2C[C@H]1n1cc(C(=O)NCc3ccc(F)cc3F)c(=O)c(O)c1C2=O [Example 60-1, (6S,7R)—N-(2,4-difluorobenzyl)-6-fluoro-12-hydroxy-6-methyl-1,11-dioxo-1,4,5,6,7,11-hexahydro-3H-2,7-methanopyrido[1,2-a][1,4]diazonine-10-carboxamide] | 1.6 | 0.457 | 13900 | 1.77 |  |
| C[C@H]1CCC[C@@H]2CN1C(=O)c1c(O)c(=O)c(C(=O)NCc3ccc(F)cc3F)cn12 [Example 52-2, (3S, 7R)—N-(2,4-difluorobenzyl)-12-hydroxy-3-methyl-1,11-dioxo-1,4,5,6,7,11-hexahydro-3H-2,7-methanopyrido[1,2-a][1,4]diazonine-10-carboxamide] | 2.19 | 0.384 | 5840 | 1.68 |  |
| O=C(NCc1ccc(F)c(Cl)c1F)c1cn2c(c(O)c1=O)C(=O)N1CCC=C(F)[C@H]2C1 (single isomer, unassigned) [Example 123-1] | 3.67 | 0.316 | 13700 | 2.05 |  |
| O=C(NCc1ccc(F)cc1)c1cn2c(c(O)c1=O)C(=O)N1CCCC[C@H]2C1 [Example 166, (7S)—N-(4-fluorobenzyl)-12-hydroxy-1,11-dioxo-1,4,5,6,7,11-hexahydro-3H-2,7-methanopyrido[1,2-a][1,4]diazonine-10-carboxamide] | 1.62 | 0.583 | 15600 | 2.5 |  |
| O=C(NCc1c(F)cc(F)cc1F)c1cn2c(c(O)c1=O)C(=O)N1CC2CCc2ccccc21 (single isomer, unassigned) [Example 38-1] | 360 | 2.64 | 11000 |  | 16.3 |
| C[C@@]12CCCCN(C1)C(=O)c1c(O)c(=O)c(C(=O)NCc3c(F)cc(F)cc3F)cn12 [Example 59-2, (7R)-12-hydroxy-7-methyl-1,11-dioxo-N-(2,4,6-trifluorobenzyl)-1,4,5,6,7,11-hexahydro-3H-2,7-methanopyrido[1,2-a][1,4]diazonine-10-carboxamide] | 55.2 | 0.547 | 18800 | 2.15 |  |
| C[C@H]1CC(F)(F)C[C@H]2CN1C(=O)c1c(O)c(=O)c(C(=O)NCc3c(F)cc(F)cc3F)cn12 [Example 113, (3S,7S)-5,5-difluoro-12-hydroxy-3-methyl-1,11-dioxo-N-(2,4,6-trifluorobenzyl)-1,4,5,6,7,11-hexahydro-3H-2,7-methanopyrido[1,2-a][1,4]diazonine-10-carboxamide] | 0.62 | 0.514 | 16900 | 1.42 |  |
| O=C(NCc1c(F)cc(F)c(F)c1F)c1cn2c(c(O)c1=O)C(=O)N1CCCC[C@H]2C1 [Example 125, (7S)-12-hydroxy-1,11-dioxo-N-(2,3,4,6-tetrafluorobenzyl)-1,4,5,6,7,11-hexahydro-3H-2,7-methanopyrido[1,2-a][1,4]diazonine-10-carboxamide] | 1.97 | 0.328 | 10200 | 2.95 |  |
| O=C(NCc1c(F)cc(F)cc1F)c1cn2c(c(O)c1=O)C(=O)N1C[C@@H]2CCc2c(Cl)cccc21 [Example 45-1, (12S)-1-chloro-7-hydroxy-6,8-dioxo-N-(2,4,6-trifluorobenzyl)-6,8,13,14-tetrahydro-12H-5,12-methanobenzo[e]pyrido[1,2-a][1,4]diazonine-9-carboxamide] | 2.56 | 0.359 | 6900 | 1.66 |  |
| O=C(NCc1ccc(F)cc1F)c1cn2c(c(O)c1=O)C(=O)N1CCCC[C@@]2(CF)C1 [Example 162-1, (7S)—N-(2,4-difluorobenzyl)-7-(fluoromethyl)-12-hydroxy-1,11-dioxo-1,4,5,6,7,11-hexahydro-3H-2,7-methanopyrido[1,2-a][1,4]diazonine-10-carboxamide] | 11.9 | 0.067 | 16200 | 1.14 |  |
| O=C(NCc1ccc(F)c(Cl)c1F)c1cn2c(c(O)c1=O)C(=O)N1CC2CCc2cccc(F)c21 (stereo not drawn) [Example 67, N-(3-chloro-2,4-difluorobenzyl)-4-fluoro-7-hydroxy-6,8-dioxo-6,8,13,14-tetrahydro-12H-5,12-methanobenzo[e]pyrido[1,2-a][1,4]diazonine-9-carboxamide] | 1.49 | 0.437 | 23900 | 2.44 |  |
| O=C(NCc1c(F)cc(F)cc1F)c1cn2c(c(O)c1=O)C(=O)N1CCc3cc(Cl)ccc3[C@@H]2C1 [Example 136-2, (13R)-10-chloro-4-hydroxy-3,5-dioxo-N-(2,4,6-trifluorobenzyl)-3,5,8,13-tetrahydro-7H-6,13-methanobenzo[g]pyrido[1,2-a][1,4]diazonine-2-carboxamide] | 5.71 | 0.392 | 6550 | 1.55 |  |
| O=C(NCc1c(F)cc(F)cc1F)c1cn2c(c(O)c1=O)C(=O)N1C[C@@H]2CCc2ccc(F)cc21 [Example 86-2, (12S)-3-fluoro-7-hydroxy-6,8-dioxo-N-(2,4,6-trifluorobenzyl)-6,8,13,14-tetrahydro-12H-5,12-methanobenzo[e]pyrido[1,2-a][1,4]diazonine-9-carboxamide] | 0.5 | 0.262 | 13700 | 1.1 |  |
| O=C(NCc1ccc(F)cc1F)c1cn2c(c(O)c1=O)C(=O)N1CCC[C@@H](F)[C@@H]2C1 [Example 172-1, (6R,7S)—N-(2,4-difluorobenzyl)-6-fluoro-12-hydroxy-1,11-dioxo-1,4,5,6,7,11-hexahydro-3H-2,7-methanopyrido[1,2-a][1,4]diazonine-10-carboxamide] | 42.7 | 0.689 | 15600 | 2.4 |  |
| Cn1cc2c(n1)CC[C@H]1CN2C(=O)c2c(O)c(=O)c(C(=O)NCc3c(F)cc(F)cc3F)cn21 [Example 85-1, (11S)-6-hydroxy-2-methyl-5,7-dioxo-N-(2,4,6-trifluorobenzyl)-2,5,7,11,12,13-hexahydro-4,11-methanopyrazolo[4,3-e]pyrido[1,2-a][1,4]diazonine-8-carboxamide] | 1.57 | 1.06 | > 49900 | 5.64 |  |
| O=C(NCc1ccc(F)cc1F)c1cn2c(c(O)c1=O)C(=O)N1C[C@@H](F)CC[C@H]2C1 (single isomer, unassigned) [Example 53-2] | 2.27 | 1.58 | 28400 | 6.2 |  |
| C[C@]12CC=CCN(C1)C(=O)c1c(O)c(=O)c(C(=O)NCc3c(F)cc(F)cc3F)cn12 [Example 156, (7S)-12-hydroxy-7-methyl-1,11-dioxo-N-(2,4,6-trifluorobenzyl)-1,6,7,11-tetrahydro-3H-2,7-methanopyrido[1,2-a][1,4]diazonine-10-carboxamide] | 41.3 | 0.187 | 13700 | 1.75 |  |
| O=C(NCc1ccc(F)cc1F)c1cn2c(c(O)c1=O)C(=O)N1CCCC(F)(F)[C@H]2C1 [Example 16-2, (7R)—N-(2,4-difluorobenzyl)-6,6-difluoro-12-hydroxy-1,11-dioxo-1,4,5,6,7,11-hexahydro-3H-2,7-methanopyrido[1,2-a][1,4]diazonine-10-carboxamide] | 82.5 | 0.85 | 36200 | 5.3 |  |

Reference: patent US12227520B2 (priority 2019, dated 2025)
